Laboratory results published in publication PMC3995882, “Antimicrobial and Immunomodulatory Activities of PR-39 Derived Peptides” (PLoS ONE, 2014).
≈ marks a conversion by molar mass, not a printed value. Where a SMILES comes first, the peptide text is derived from it.

Columns and labels:
B. globigii = format: cell-based, Bacillus globigii; details: colony counting, 3 h 37°C, 10 mM phosphate buffer pH 7.0 with 1/1000 TSB, MBC = <100 CFU/ml; for MBC B. globigii 0 mM NaCl: 2×10^6 CFU/ml, no NaCl added; for MBC B. globigii +100 mM NaCl: 100 mM NaCl added
Procedure: (§1) Overnight cultures of E. coli and B. globigii were grown in TSB medium at 37°C to mid-logarithmic phase. The antimicrobial activity of the PR-39 derived peptides was tested using colony counting as described before. In short, cells were collected via centrifugation at 900×g for 10 minutes, and resuspended in 10 mM phosphate buffer, pH 7.0, containing 1/1000 TSB medium (Buffer A). Cells were further diluted to 2×10^6 CFU/ml in the same buffer. Next, 25 µl of cell suspension was mixed with an equal volume of different concentrations of peptides ranging from 0–80 µM, and incubated further for 3 hours at 37°C. Ten-fold dilutions were prepared in minimal buffer containing 1/1000 TSB medium in distilled water, and 100 µl from each dilution was spread on TSA plates (Trypton Soy Agar; Oxoid). The plates were incubated at 37°C and the number of colonies was counted 24 h later to determine the number of surviving bacteria. Minimal Bactericidal Concentration (MBC) was defined as <100 CFU/ml corresponding to the detection limit of this assay. To determine the dependence of activity of PR-39 on the energy status of the cell, E. coli was incubated 30 min at 37°C in the presence of the metabolic uncouplers 50 µM carbonyl cyanide m-chlorophenylhydrazone (CCCP), or 5 mM 2,4-dinitrophenol (DNP). Subsequently, an antimicrobial activity assay was performed as described above.

E. coli = experiment: Colony counting assay (MBC); format: cell-based, Escherichia coli; details: 3 h 37°C, 10 mM phosphate buffer pH 7.0 with 1/1000 TSB, MBC = <100 CFU/ml; for MBC E. coli 0 mM NaCl: 2×10^6 CFU/ml, no NaCl added; for MBC E. coli 100 mM NaCl: 100 mM NaCl added
Procedure: as §1

E.coli ATCC 4157 = experiment: Broth dilution assay (MIC); format: cell-based, Escherichia coli; details: 50% MHB, turbidity, range of triplicate experiments
E.coli K12 = experiment: Broth dilution assay (MIC); format: cell-based, Escherichia coli; details: 50% MHB, turbidity, range of triplicate experiments
[1] = system: Enterococcus Faecalis (ATCC 29213); experiment: Broth dilution assay (MIC); format: cell-based; details: 50% MHB, turbidity, range of triplicate experiments
[2] = system: serine proteases, elastase, and aminopeptidases; details: cited from earlier work
Source text: Current literature on PR-39 has shifted from an initial focus on antibacterial activity to potential new roles in host defence mechanisms.

[3] = system: Bacillus Subtilis (ATCC6633); experiment: Broth dilution assay (MIC); format: cell-based; details: 50% MHB, turbidity, range of triplicate experiments
[4] = system: Enterococcus Faeceum E155; format: cell-based; details: broth dilution, 50% MHB, turbidity; range of triplicate experiments
[5] = system: Bacillus Cereus ATCC 9193; experiment: Broth dilution assay (MIC); format: cell-based; details: 50% MHB, turbidity, range of triplicate experiments
E.coli K88 403 = details: broth dilution, 50% MHB, turbidity; range of triplicate experiments
Procedure: Initial screening for antibacterial activity of PR-39 was performed using broth dilution assays. Bacteria were grown to mid-logarithmic phase in MHB medium. The optical density was measured and bacteria were diluted to 2×10^6 CFU/ml. Subsequently 25 µl bacteria were incubated with 25 µl peptide in polypropylene 96 wells plates and incubated at 37°C. After 3 h 200 µl MHD medium was added and samples were further incubated overnight. Minimal inhibitory concentrations (MIC) were determined by turbidity measurement of the wells.

E.coli ATCC25922 = experiment: Broth dilution assay (MIC); format: cell-based, Escherichia coli; details: 50% MHB, turbidity, range of triplicate experiments
Bacillus Globigii (TNO) = format: cell-based; details: broth dilution, 50% MHB, turbidity; range of triplicate experiments
[6] = system: Streptococcus Pyogenes (ATCC 19616); experiment: Broth dilution assay (MIC); format: cell-based; details: 50% MHB, turbidity, range of triplicate experiments
[7] = system: Bacillus Lichen ATCC 21424; experiment: Broth dilution assay (MIC); format: cell-based, Bacillus licheniformis; details: 50% MHB, turbidity, range of triplicate experiments

| SMILES | MBC B. globigii 0 mM NaCl (B. globigii) [µM] | MBC B. globigii +100 mM NaCl (B. globigii) [µM] | MBC E. coli 0 mM NaCl (E. coli) [µM] | MBC E. coli 100 mM NaCl (E. coli) [µM] | further results |
| --- | --- | --- | --- | --- | --- |
| CC(C)C[C@H](NC(=O)[C@H](Cc1ccc(O)cc1)NC(=O)[C@@H]1CCCN1C(=O)[C@@H]1CCCN1C(=O)[C@H](CCCNC(=N)N)NC(=O)[C@@H]1CCCN1C(=O)[C@H](CCCNC(=N)N)NC(=O)[C@H](CCCNC(=N)N)NC(=O)[C@@H](N)CCCNC(=N)N)C(=O)N1CCC[C@H]1C(=O)N[C@@H](CCCNC(=N)N)C(=O)N1CCC[C@H]1C(=O)N[C@@H](CCCNC(=N)N)C(=O)N1CCC[C@H]1C(=O)N1CCC[C@H]1C(=O)O [PR-39(1–15)] (H-RRRPRPPYLPRPRPP-OH) | 5 (≈ 9.56 µg/mL) | >40 | 5 (≈ 9.56 µg/mL) | >40 |  |
| CC(C)C[C@H](NC(=O)[C@H](Cc1ccc(O)cc1)NC(=O)[C@@H]1CCCN1C(=O)[C@@H]1CCCN1C(=O)[C@H](CCCNC(=N)N)NC(=O)[C@@H]1CCCN1C(=O)[C@H](CCCNC(=N)N)NC(=O)[C@H](CCCNC(=N)N)NC(=O)[C@@H](N)CCCNC(=N)N)C(=O)N1CCC[C@H]1C(=O)N[C@@H](CCCNC(=N)N)C(=O)N1CCC[C@H]1C(=O)N[C@@H](CCCNC(=N)N)C(=O)N1CCC[C@H]1C(=O)N1CCC[C@H]1C(=O)N1CCC[C@H]1C(=O)N[C@@H](Cc1ccccc1)C(=O)N[C@@H](Cc1ccccc1)C(=O)O [PR-39(1–18)] (H-RRRPRPPYLPRPRPPPFF-OH) | 2.5 (≈ 5.76 µg/mL) | 10 (≈ 23 µg/mL) | 5 (≈ 11.5 µg/mL) | 20 (≈ 46.1 µg/mL) |  |
| CC(C)C[C@H](NC(=O)[C@H](CCCNC(=N)N)NC(=O)[C@@H]1CCCN1C(=O)[C@@H]1CCCN1C(=O)[C@H](Cc1ccccc1)NC(=O)[C@H](Cc1ccccc1)NC(=O)[C@@H]1CCCN1C(=O)[C@@H]1CCCN1C(=O)[C@@H]1CCCN1C(=O)[C@H](CCCNC(=N)N)NC(=O)[C@@H]1CCCN1C(=O)[C@H](CCCNC(=N)N)NC(=O)[C@@H]1CCCN1C(=O)[C@H](CC(C)C)NC(=O)[C@H](Cc1ccc(O)cc1)NC(=O)[C@@H]1CCCN1C(=O)[C@@H]1CCCN1C(=O)[C@H](CCCNC(=N)N)NC(=O)[C@@H]1CCCN1C(=O)[C@H](CCCNC(=N)N)NC(=O)[C@H](CCCNC(=N)N)NC(=O)[C@@H](N)CCCNC(=N)N)C(=O)O [PR-39(1–22)] (H-RRRPRPPYLPRPRPPPFFPPRL-OH) | 2.5 (≈ 6.92 µg/mL) | 10 (≈ 27.7 µg/mL) | 1.25 (≈ 3.46 µg/mL) | 2.5 (≈ 6.92 µg/mL) |  |
| CC[C@H](C)[C@H](NC(=O)[C@H](CCCNC(=N)N)NC(=O)[C@@H]1CCCN1C(=O)[C@@H]1CCCN1C(=O)[C@H](CC(C)C)NC(=O)[C@H](CCCNC(=N)N)NC(=O)[C@@H]1CCCN1C(=O)[C@@H]1CCCN1C(=O)[C@H](Cc1ccccc1)NC(=O)[C@H](Cc1ccccc1)NC(=O)[C@@H]1CCCN1C(=O)[C@@H]1CCCN1C(=O)[C@@H]1CCCN1C(=O)[C@H](CCCNC(=N)N)NC(=O)[C@@H]1CCCN1C(=O)[C@H](CCCNC(=N)N)NC(=O)[C@@H]1CCCN1C(=O)[C@H](CC(C)C)NC(=O)[C@H](Cc1ccc(O)cc1)NC(=O)[C@@H]1CCCN1C(=O)[C@@H]1CCCN1C(=O)[C@H](CCCNC(=N)N)NC(=O)[C@@H]1CCCN1C(=O)[C@H](CCCNC(=N)N)NC(=O)[C@H](CCCNC(=N)N)NC(=O)[C@@H](N)CCCNC(=N)N)C(=O)O [PR-39(1–26)] (H-RRRPRPPYLPRPRPPPFFPPRLPPRI-OH) | 5 (≈ 16.1 µg/mL) | 5 (≈ 16.1 µg/mL) | 2.5 (≈ 8.07 µg/mL) | 1.25 (≈ 4.04 µg/mL) |  |
| CC[C@H](C)[C@H](NC(=O)[C@H](CCCNC(=N)N)NC(=O)[C@@H]1CCCN1C(=O)[C@@H]1CCCN1C(=O)[C@H](CC(C)C)NC(=O)[C@H](CCCNC(=N)N)NC(=O)[C@@H]1CCCN1C(=O)[C@@H]1CCCN1C(=O)[C@H](Cc1ccccc1)NC(=O)[C@H](Cc1ccccc1)NC(=O)[C@@H]1CCCN1)C(=O)N1CCC[C@H]1C(=O)N1CCC[C@H]1C(=O)NCC(=O)N[C@@H](Cc1ccccc1)C(=O)N1CCC[C@H]1C(=O)N1CCC[C@H]1C(=O)N[C@@H](CCCNC(=N)N)C(=O)N[C@@H](Cc1ccccc1)C(=O)N1CCC[C@H]1C(=O)N1CCC[C@H]1C(=O)N[C@@H](CCCNC(=N)N)C(=O)N[C@@H](Cc1ccccc1)C(=O)N1CCC[C@H]1C(=O)O [PR-39(16–39)] (H-PFFPPRLPPRIPPGFPPRFPPRFP-OH) | 10 (≈ 28.3 µg/mL) | >40 | 10 (≈ 28.3 µg/mL) | >40 |  |
| CC[C@H](C)[C@H](NC(=O)[C@H](CCCNC(=N)N)NC(=O)[C@@H]1CCCN1C(=O)[C@@H]1CCCN1C(=O)[C@H](CC(C)C)NC(=O)[C@H](CCCNC(=N)N)NC(=O)[C@@H]1CCCN1)C(=O)N1CCC[C@H]1C(=O)N1CCC[C@H]1C(=O)NCC(=O)N[C@@H](Cc1ccccc1)C(=O)N1CCC[C@H]1C(=O)N1CCC[C@H]1C(=O)N[C@@H](CCCNC(=N)N)C(=O)N[C@@H](Cc1ccccc1)C(=O)N1CCC[C@H]1C(=O)N1CCC[C@H]1C(=O)N[C@@H](CCCNC(=N)N)C(=O)N[C@@H](Cc1ccccc1)C(=O)N1CCC[C@H]1C(=O)O [PR-39(20–39)] (H-PRLPPRIPPGFPPRFPPRFP-OH) | 20 (≈ 46.8 µg/mL) | >40 | 5 (≈ 11.7 µg/mL) | >40 |  |
| CC[C@H](C)[C@H](NC(=O)[C@H](CCCNC(=N)N)NC(=O)[C@@H]1CCCN1)C(=O)N1CCC[C@H]1C(=O)N1CCC[C@H]1C(=O)NCC(=O)N[C@@H](Cc1ccccc1)C(=O)N1CCC[C@H]1C(=O)N1CCC[C@H]1C(=O)N[C@@H](CCCNC(=N)N)C(=O)N[C@@H](Cc1ccccc1)C(=O)N1CCC[C@H]1C(=O)N1CCC[C@H]1C(=O)N[C@@H](CCCNC(=N)N)C(=O)N[C@@H](Cc1ccccc1)C(=O)N1CCC[C@H]1C(=O)O [PR-39(24–39)] (H-PRIPPGFPPRFPPRFP-OH) | 40 (≈ 75 µg/mL) | >40 | 40 (≈ 75 µg/mL) | >40 |  |
| CC[C@H](C)[C@H](NC(=O)[C@H](CCCNC(=N)N)NC(=O)[C@@H]1CCCN1C(=O)[C@@H]1CCCN1C(=O)[C@H](CC(C)C)NC(=O)[C@H](CCCNC(=N)N)NC(=O)[C@@H]1CCCN1C(=O)[C@@H]1CCCN1C(=O)[C@H](Cc1ccccc1)NC(=O)[C@H](Cc1ccccc1)NC(=O)[C@@H]1CCCN1C(=O)[C@@H]1CCCN1C(=O)[C@@H]1CCCN1C(=O)[C@H](CCCNC(=N)N)NC(=O)[C@@H]1CCCN1C(=O)[C@H](CCCNC(=N)N)NC(=O)[C@@H]1CCCN1C(=O)[C@H](CC(C)C)NC(=O)[C@H](Cc1ccc(O)cc1)NC(=O)[C@@H]1CCCN1C(=O)[C@@H]1CCCN1C(=O)[C@H](CCCNC(=N)N)NC(=O)[C@@H]1CCCN1C(=O)[C@H](CCCNC(=N)N)NC(=O)[C@H](CCCNC(=N)N)NC(=O)[C@@H](N)CCCNC(=N)N)C(=O)N1CCC[C@H]1C(=O)N1CCC[C@H]1C(=O)NCC(=O)N[C@@H](Cc1ccccc1)C(=O)N1CCC[C@H]1C(=O)N1CCC[C@H]1C(=O)N[C@@H](CCCNC(=N)N)C(=O)N[C@@H](Cc1ccccc1)C(=O)N1CCC[C@H]1C(=O)N1CCC[C@H]1C(=O)N[C@@H](CCCNC(=N)N)C(=O)N[C@@H](Cc1ccccc1)C(=O)N1CCC[C@H]1C(=O)O [PR-39] (H-RRRPRPPYLPRPRPPPFFPPRLPPRIPPGFPPRFPPRFP-OH) | 2.5 (≈ 11.8 µg/mL) | 5 (≈ 23.6 µg/mL) | 1.25 (≈ 5.9 µg/mL) | 2.5 (≈ 11.8 µg/mL) | MIC (E.coli ATCC 4157): 1.25 to 2.5 µM; MIC (E.coli K12): 1.25 to 2.5 µM; MIC [1]: 10 µM (≈ 47.2 µg/mL); resistance to proteases [2]: resistant to serine proteases, elastase, and aminopeptidases; MIC [3]: 2.5 to 5 µM; MIC [4]: 1.25 to 2.5 µM; MIC [5]: 5 to 20 µM; MIC (E.coli K88 403): 1.25 to 2.5 µM; MIC (E.coli ATCC25922): 2.5 to 10 µM; MIC (Bacillus Globigii (TNO)): 1.25 to 5 µM; MIC [6]: 2.5 to 5 µM; MIC [7]: 5 µM (≈ 23.6 µg/mL) |
